From patent US20230117328A1, “METHODS TO TREAT CANCER USING (R)-N-(3-FLUORO-4-((3-((1-HYDROXYPROPAN-2-YL)AMINO)-1H-PYRAZOLO[3,4-B]PYRIDIN-4-YL)OXY)PHENYL)-3-(4-FLUOROPHENYL)-1-ISOPROPYL-2,4-DIOXO-1,2,3,4-TETRAHYDROPYRIMIDINE-5-CARBOXAMIDE” (Array BioPharma Inc., priority 2020, published 2023)
Entries after “also recorded” stand apart in the source; their conditions may differ.

What was measured:
CYP3A4 = CYP3A4 (Homo sapiens, UniProt P08684); assay: In vitro metabolism by CYP3A4; format: in vitro ADME
Aqueous solubility = format: physicochemical
[1] = Tolerability (body weight loss, deaths) in MC-38 tumor-bearing cohorts; format: in vivo; conditions: for Deaths (any cause) / Maximum % Body Weight Loss: MC-38 tumor-bearing mice
Method: As monotherapy, anti-PD-1 was administered twice weekly (BIW) for 2 consecutive weeks by intraperitoneal (IP) injection at 200 μg/mouse (Days 10, 13, 17, and 20).
Animals were monitored for tumor growth and body weight 2-3 times per week based on outgrowth kinetics. Tumor diameter was measured with digital calipers, and the tumor volume in mm^3 was calculated by the formula: Volume=((width)^2×length)/2. Animals were removed from study if found moribund or if tumor volume exceeded 1500 mm^3.
Any animals remaining with no palpable tumors were scored as cures.
Survival was defined as morbidity, mortality or tumor size exceeding 1500 mm^3.

[2] = system: MC-38 colon adenocarcinoma tumors; assay: Antitumor efficacy in syngeneic MC-38 colon adenocarcinoma tumor-bearing mice; format: in vivo, C57BL/6 mice; conditions: MC-38 tumor-bearing mice; for Median Survival (days): not reached = more than 50% of animals alive at end of study (Day 66), 50 mg/kg
Method: Female C57BL/6 bearing syngeneic MC-38 colon adenocarcinoma tumors (n=8/group, implanted on Day 0) were administered test articles Compound 1 or anti-PD-1, as monotherapy or in combination, starting on Day 10. As monotherapy, anti-PD-1 was administered twice weekly (BIW) for 2 consecutive weeks by intraperitoneal (IP) injection at 200 μg/mouse (Days 10, 13, 17, and 20). As monotherapy, Compound 1 was administered twice daily (BID) at 50 mg/kg by oral gavage (PO) for 28 consecutive days (Days 10-37). As combination therapy with anti-PD-1 (administered at the dose and schedule indicated above), Compound 1 was administered BID at 50 mg/kg PO for 1) 7 consecutive days (Days 10-16); 2) 14 consecutive days (Days 10-23); 3) 21 consecutive days (Days 10-30); 4) 28 consecutive days (Days 10-37); or, 5) 7 consecutive days on the first and third week of dosing (Days 10-16 and Days 24-30). This set of cohorts was used to determine both the tolerability and efficacy of Compound 1 treatment across dosing schedules, as well as ocular toxicity upon recovery on Day 66.
For initial tumor outgrowth, a suspension of 1×10^6 MC-38 cells in a volume of 100 μL PBS was implanted subcutaneously on the right flank of the animal near the axillary region. Animals were then randomly assigned to treatment groups. Treatment was initiated on day 10 after MC-38 tumor cell inoculation to allow for a sufficient treatment window (Table 1).
Anti-PD-1 was administered twice weekly (BIW) for 2 consecutive weeks by intraperitoneal (IP) injection at 200 μg/mouse. Compound 1 was administered twice daily (BID) for 28 consecutive days by oral gavage (PO) at 50 mg/kg in 10 mL/kg dose volume (with or without anti-PD-1 administered on the above indicated dose and schedule). Alternatively, Compound 1 was administered BID for 7, 14 or 21 consecutive days, or on Days 10-16 and Days 24-30 in combination with anti-PD-1. Concomitantly, a set of satellite cohorts comprising tumor-naïve mice was treated with the same schedules and doses as indicated above.
Animals were monitored for tumor growth and body weight 2-3 times per week based on outgrowth kinetics. Tumor diameter was measured with digital calipers, and the tumor volume in mm^3 was calculated by the formula: Volume=((width)^2×length)/2. Animals were removed from study if found moribund or if tumor volume exceeded 1500 mm^3. […] Food, water, temperature and humidity were according to Pharmacology Testing Facility performance standards (SOPs) which are in accordance with the 1996 Guide for the Care and Use of Laboratory Animals (NRC) and AAALAC-International.
The murine MC-38 colon adenocarcinoma cell line was developed in C57BL/6 mice upon subcutaneous injection of dimethylhydrazine (Corbett, T. H., Griswold, D. P., et al. (1975), Cancer Research 35, 2434-2439). Extensive immunogenomic, transcriptomic, and therapeutic background are available on this cell line (Yadav, M., Jhunjhunwala, S., et al. (2014) Nature, 515, 572-576; and Efremova, M., Rieder, D., et al. (2018) Nat. Commun. 9, 32). The MC-38 cell line is reported to harbor driver mutations in TP53, PTEN, SMAD2, SMAD4, ACVR2A, TGFB2, BRAF, AXIN, SOX9, and ARID1A. Furthermore, mutations in the MMR gene MSH3 indicate that this cell line is a model of human MSI/hypermutated colorectal cancer. Whole exome sequencing has also identified 1290 transcript coding variations (compared to the reference C57BL/6 genome), among which 170 were predicted to be MHC Class I-presented neo-epitopes.
MC-38 (National Cancer Institute-Frederick Tumor Repository, Frederick, Md.) cells were grown in a humidified atmosphere of 5% CO2 using DMEM growth media (Gibco Life Technologies, 11965-092) supplemented with 10% fetal bovine serum (HyClone SH30071.03, Logan, Utah) and 100 U/mL penicillin, 100 μg/mL streptomycin (Gibco Life Technologies, 15140-122). Cells were confirmed murine virus and mycoplasma negative (IDEXX Laboratories Inc, Columbia, Mo.) prior to implantation. […]

[3] = Compound 1 50 mg/kg PO BID Days 10-16 (7 days) in combination with anti-PD-1 200 μg IP BIW (Days 10, 13, 17, 20)
[4] = Compound 1 50 mg/kg PO BID Days 10-16 and Days 24-30 (interval schedule) in combination with anti-PD-1 200 μg IP BIW (Days 10, 13, 17, 20)
[5] = Compound 1 50 mg/kg PO BID Days 10-23 (14 days) in combination with anti-PD-1 200 μg IP BIW (Days 10, 13, 17, 20)
[6] = Compound 1 50 mg/kg PO BID Days 10-30 (21 days) in combination with anti-PD-1 200 μg IP BIW (Days 10, 13, 17, 20)
[7] = Compound 1 50 mg/kg PO BID Days 10-37 (28 days) in combination with anti-PD-1 200 μg IP BIW (Days 10, 13, 17, 20)
[8] = Compound 1 monotherapy, 50 mg/kg PO BID Days 10-37 (28 days)

Sequence of CYP3A4 (P08684 whole entry): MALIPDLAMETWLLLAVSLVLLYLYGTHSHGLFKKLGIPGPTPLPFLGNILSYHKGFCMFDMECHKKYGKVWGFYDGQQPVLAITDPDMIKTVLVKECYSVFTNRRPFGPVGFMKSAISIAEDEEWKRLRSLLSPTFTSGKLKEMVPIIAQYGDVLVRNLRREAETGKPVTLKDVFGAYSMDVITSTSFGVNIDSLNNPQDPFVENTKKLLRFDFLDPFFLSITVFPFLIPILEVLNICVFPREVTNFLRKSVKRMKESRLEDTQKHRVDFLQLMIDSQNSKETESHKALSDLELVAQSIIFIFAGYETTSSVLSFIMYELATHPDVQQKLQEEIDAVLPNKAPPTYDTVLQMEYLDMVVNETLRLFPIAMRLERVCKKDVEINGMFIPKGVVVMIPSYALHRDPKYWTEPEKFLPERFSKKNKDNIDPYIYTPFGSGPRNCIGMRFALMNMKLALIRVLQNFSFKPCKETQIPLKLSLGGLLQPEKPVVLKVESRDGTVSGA

In the case of `CC(C)n1cc(C(=O)Nc2ccc(Oc3ccnc4[nH]nc(N[C@H](C)CO)c34)c(F)c2)c(=O)n(-c2ccc(F)cc2)c1=O` [Compound 1, (R)—N-(3-fluoro-4-((3-((1-hydroxypropan-2-yl)amino)-1H-pyrazolo[3,4-b]pyridin-4-yl)oxy)phenyl)-3-(4-fluorophenyl)-1-isopropyl-2,4-dioxo-1,2,3,4-tetrahydropyrimidine-5-carboxamide], the “metabolizing enzyme in vitro” value (CYP3A4) is reported as “primarily metabolized by CYP3A4 and CYP2D6”, the aqueous solubility (Aqueous solubility) is reported as “pH dependent” and the “tolerability of doses and schedules” value ([1]; MC-38 study, Compound 1 50 mg/kg BID 7-28 days, monotherapy or with anti-PD-1 200 μg BIW, 50 mg/kg) is reported as “tolerated as monotherapy and in combination with anti-PD-1; also recorded: tolerated at these doses and schedules”. The “Deaths (any cause)” value [1, 3] was 0/8, the “Maximum % Body Weight Loss” value [1, 3] was 0.00% and the “Deaths (any cause)” value [1, 4] was 0/8. The “Maximum % Body Weight Loss” value [1, 4] was 0.23%, the “Deaths (any cause)” value [1, 5] was 0/8 and the “Maximum % Body Weight Loss” value [1, 5] was 0.00%. The “Deaths (any cause)” value [1, 6] was 0/8, the “Maximum % Body Weight Loss” value [1, 6] was 2.98% and the “Deaths (any cause)” value [1, 7] was 1/8. For the same compound, the “Maximum % Body Weight Loss” value [1, 7] was 0.00%, the “Deaths (any cause)” value [1, 8] was 2/8 and the “Maximum % Body Weight Loss” value [1, 8] was 5.17%. For the same compound, the “% TGI on Day 32” value [2, 3] was 96.6%, the “Cures on Day 66” value [2, 3] was 6/8 and the “Median Survival (days)” value ([2]; Compound 1 50 mg/kg PO BID Days 10-16 (7 days) in combination with anti-PD-1 200 μg IP BIW) was “not reached”. The “% TGI on Day 32” value [2, 4] was 96.2%, the “Cures on Day 66” value [2, 4] was 4/8 and the “Median Survival (days)” value ([2]; Compound 1 50 mg/kg PO BID Days 10-16 and Days 24-30 (interval schedule) in combination with anti-PD-1 200 μg IP BIW) was “not reached”. For the same compound, the “% TGI on Day 32” value [2, 5] was 97.1%, the “Cures on Day 66” value [2, 5] was 3/8 and the “Median Survival” value [2, 5] was 66 days. The “% TGI on Day 32” value [2, 6] was 98.5%, the “Cures on Day 66” value [2, 6] was 3/8 and the “Median Survival (days)” value ([2]; Compound 1 50 mg/kg PO BID Days 10-30 (21 days) in combination with anti-PD-1 200 μg IP BIW) was “not reached”. For the same compound, the “% TGI on Day 32” value [2, 7] was 99.3%, the “Cures on Day 66” value [2, 7] was 5/7 and the “Median Survival (days)” value ([2]; Compound 1 50 mg/kg PO BID Days 10-37 (28 days) in combination with anti-PD-1 200 μg IP BIW) was “not reached”. The “% TGI on Day 32” value [2, 8] was 95.6%, the “Cures on Day 66” value [2, 8] was 0/6 and the “Median Survival” value [2, 8] was 66 days.
